Measured values from PMC7145288, “New Peptide-Based Pharmacophore Activates 20S Proteasome” (Molecules, 2020).

Test system: 20S core proteasome α face pockets
Assay: Competition with Rpt C-terminal tail peptides for α face pockets (ChT-L activity)
Format: biochemical, human
Conditions: Rpt peptide 1 μM added before TAT peptide; for Competition with Rpt tail peptides (in words, from radar plot scores): Rpt2 α3/α4, Rpt3 α1/α2, Rpt5 α5/α6, Rpt6 α2/α3 pocket, three to six experiments; for Enhanced (synergistic) activation with Rpt tail peptides (in words): Rpt5 or Rpt6 tails
Description: As mentioned above, the binding pockets on the α face accept “anchors” from natural protein ligands of the 20S core. […] The 10-residue Rpt-derived C-terminal “tail” peptides (“Rpt peptides”) can be used as competitors with the Rpt subunits or with small allosteric ligands. Importantly, the Rpt peptides interject between the subunits with their C-termini, whereas TAT peptides, according to the modeling, use their N-termini for this purpose. To test the specificity of interactions between TAT compounds and the α face, we performed competition experiments. The 20S core was challenged with selected TAT compounds after treatment with Rpt peptides. We selected peptides of Rpt2 ([…]), Rpt3 ([…]), Rpt5 ([…]) and Rpt6 […]) subunits, docking in α3/α4, α1/α2, α5/α6 and α2/α3 pockets, respectively. Tails of Rpt2, 3, and 5 display the canonical HbYX motif, whereas the LeuTrpLys C-terminus of Rpt6 may be considered “pseudo-HbYX”, with a bulky Trp replacing Tyr. Results of the competition experiments are presented as radar plots in Figure 7. […] This pocket also emerged as the major binding site for (1) and (8). However, these compounds likely weakly competed with the Rpt2 tail for binding to the α3/α4 pocket as well. The α3/α4 pocket seemed to be favored by (6). […] These complex patterns point at the importance of allosteric effects between the α face ligands, the gate and the catalytic chamber.
Figure 7 TAT1 derivatives competed with selected C-terminal tails of Rpt (Regulatory Particle ATPases) subunits for binding to specific α face pockets. The scores presented in radar plots were calculated as ((relative activation by the [x] and Rpt tail)-(theoretical sum of activation by [x] and Rpt tail))/(theoretical sum of activation by [x] and Rpt tail), where [x] represent any TAT peptide. […] The positive scores for combinations of selected compounds with Rpt5 or Rpt6 tails indicated a presumed synergy in activation of the core. Average scores derived from three to six experiments are presented. The competition effects were statistically significant (at least p < 0.05) for Rpt3 peptide and (1) and (8), as well as for Rpt2 peptide and (6).
Human housekeeping core (20S) proteasome purified from erythrocytes was purchased from Boston Biochem, Inc. (Cambridge, MA) or from Enzo Life Sciences, Inc. (Farmingdale, NY). Multiple batches of the proteasomes were used and performed reproducibly. The stock proteasome was diluted to 0.2 mg/mL working solution in “dilution buffer” (50 mM Tris/HCl, pH 8, 20% glycerol). The following model peptide substrates, all releasing fluorescent 7-amino-4-methylcoumarin (AMC) reporter group after cleavage, were used: succinyl-LeuLeuValTyr-AMC (for the ChT-L peptidase; SucLLVY-AMC; Bachem Bioscience Inc., Philadelphia, PA), butoxycarbonyl-LeuArgArg-AMC (T-L; Bachem Bioscience Inc., Philadelphia, PA) and carbobenzoxy- LeuLeuGlu-AMC (PGPH; Enzo Life Sciences Inc., Farmingdale, NY). The substrates were used at concentration of 50 μM (ChT-L) or 100 μM (T-L, PGPH). Free AMC (Sigma-Aldrich, St. Louis, MO) was used as the standard. The C-terminal peptides derived from Rpt2, Rpt3, Rpt5 and Rpt6 were synthesized (standard solid-phase peptide chemistry) and purified to at least 98% purity by GenScript (Piscataway, NJ). The TAT peptides, Rpt peptides (except Rpt6) and the peptide substrates were dissolved in anhydrous dimethylsulfoxide (DMSO; Sigma-Aldrich, St. Louis, MO) and such stock solutions were stored at −20 °C. The total concentration of DMSO in final reaction mixtures never exceeded 3% (vol/vol). The Trp (tryptophan) -containing Rpt6 peptide was dissolved in ultrapure water and stored at −20 °C, protected from light. […]

Structure (SMILES) | Competition with Rpt tail peptides (in words, from radar plot scores) | Enhanced (synergistic) activation with Rpt tail peptides (in words)
N=C(N)NCCC[C@H](NC(=O)CN)C(=O)N[C@@H](CCCCN)C(=O)N[C@@H](CCCCN)C(=O)N[C@@H](CCCNC(=N)N)C(=O)N[C@@H](CCCNC(=N)N)C(=O)N[C@@H](CCC(N)=O)C(=O)N1Cc2ccccc2C[C@H]1C(=O)N1[C@@H](C(=O)N[C@@H](CCCNC(=N)N)C(=O)N2CCC[C@H]2C(=O)N[C@@H](CO)C(=O)O)C[C@H]2CCCC[C@H]21 [(5)] | competed fairly specifically with Rpt3 tail | enhanced activation in the presence of one of Rpt tails, namely Rpt5 or Rpt6
NCCCC[C@H](NC(=O)[C@H](CCCCN)NC(=O)[C@H](CCCCN)NC(=O)c1cc(NC(=O)[C@H](CCCCN)NC(=O)[C@H](CCCCN)NC(=O)[C@@H](N)CCCCN)cc(NC(=O)[C@H](CCCCN)NC(=O)[C@H](CCCCN)NC(=O)[C@@H](N)CCCCN)c1)C(=O)O [(8)] | added a weakly negative score for the Rpt2 tail to the presumed major competitor Rpt3 | enhanced activation in the presence of one of Rpt tails, namely Rpt5 or Rpt6
